# Measurements as given in patent publication US8114871B2, “3-amido-pyrrolo[3,4-C]pyrazole-5(1H,4H,6H) carbaldehyde derivatives” (Pfizer Inc., priority 2007, dated 2012).
# Molecular target: Protein Kinase C beta 2 (PKCβII) (Homo sapiens, UniProt P05771)
# Experiment: PKCβII coupled PK/LDH spectrophotometric kinase assay (decrease of NADH absorbance at 340 nm)
# Assay type: biochemical
# Conditions: apparent Ki, Morrison fit, 0.1 mM ATP, 30° C., pH 7.4; read-out: PKCb Ki
# Description: This transfer is coupled to the oxidation of p-NADH through the activities of Pyruvate Kinase (PK) and Lactate Dehydrogenase (LDH).
# A typical assay was carried out on a 96-well, clear microtiter plate in a Molecular Devices spectrophotometer for 20 minutes at 30° C. in 0.1 mL of assay buffer containing 50 mM HEPES, pH 7.4, 5 nM PKC, 23 units of pyruvate kinase, 33 units of lactate dehydrogenase, 0.15 mM peptide, 0.1 mM ATP, 1 mM DTT, 4 mM PEP, 8 mM MgCl2, 0.3 mM NADH, 60 mM CaCl2, 10 mg/mL PS, 50 ng/mL PMA, 7.5% DMSO and from about 10,000 nM to 0.169 nM compound inhibitor. Stock solutions of 3-sn-phosphatidyl-L-serine (PS) and phorbol-12-myristate-13-acetate (PMA) were sonicated for 30 seconds just prior to addition to assay buffer and assays were initiated by the addition of 100 μM ATP.
# Enzyme turnover values (kcat) were calculated according to […], where [E] is the total enzyme concentration. […] Morrison, J. F., Biochim. Biophys Acta 185: 269-286 (1969).
# Sequence of Protein Kinase C beta 2 (PKCβII) (P05771 1-673 isoform P05771-2): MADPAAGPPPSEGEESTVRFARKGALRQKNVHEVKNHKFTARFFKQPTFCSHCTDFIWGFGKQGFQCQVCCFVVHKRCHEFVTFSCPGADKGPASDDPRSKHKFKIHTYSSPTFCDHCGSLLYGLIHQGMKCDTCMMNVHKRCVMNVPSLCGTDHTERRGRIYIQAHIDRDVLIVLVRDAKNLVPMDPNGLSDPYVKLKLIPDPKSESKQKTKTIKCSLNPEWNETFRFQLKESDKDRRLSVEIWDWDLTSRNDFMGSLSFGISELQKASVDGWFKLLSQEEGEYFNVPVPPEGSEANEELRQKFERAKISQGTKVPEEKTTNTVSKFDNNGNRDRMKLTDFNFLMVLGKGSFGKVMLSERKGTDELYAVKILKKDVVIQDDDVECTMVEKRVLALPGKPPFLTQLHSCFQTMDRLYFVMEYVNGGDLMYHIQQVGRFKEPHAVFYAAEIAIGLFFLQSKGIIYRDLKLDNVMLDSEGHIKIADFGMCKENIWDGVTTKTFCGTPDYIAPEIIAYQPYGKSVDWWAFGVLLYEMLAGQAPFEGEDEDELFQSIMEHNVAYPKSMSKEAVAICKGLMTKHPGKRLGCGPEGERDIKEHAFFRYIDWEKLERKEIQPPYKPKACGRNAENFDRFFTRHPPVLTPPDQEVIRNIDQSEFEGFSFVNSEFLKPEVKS
smiles,measurement,value
"CCOc1cccc(C(=O)Nc2n[nH]c3c2CN(C(=O)N2C[C@@H]4CCCN4C[C@@H]2C)C3(C)C)c1 [Example E5, N-(6,6-dimethyl-5-((3S,8aS)-3-methyl-octahydropyrrolo[1,2-a]pyrazine-2-carbonyl)-1,4,5,6-tetrahydropyrrolo[3,4-c]pyrazol-3-yl)-3-ethoxybenzamide]",Ki,37.5 nM
